The target in the assay is Serine/threonine-protein kinase pim-1 (Homo sapiens, UniProt P11309).
Chain of Serine/threonine-protein kinase pim-1 (P11309 whole entry): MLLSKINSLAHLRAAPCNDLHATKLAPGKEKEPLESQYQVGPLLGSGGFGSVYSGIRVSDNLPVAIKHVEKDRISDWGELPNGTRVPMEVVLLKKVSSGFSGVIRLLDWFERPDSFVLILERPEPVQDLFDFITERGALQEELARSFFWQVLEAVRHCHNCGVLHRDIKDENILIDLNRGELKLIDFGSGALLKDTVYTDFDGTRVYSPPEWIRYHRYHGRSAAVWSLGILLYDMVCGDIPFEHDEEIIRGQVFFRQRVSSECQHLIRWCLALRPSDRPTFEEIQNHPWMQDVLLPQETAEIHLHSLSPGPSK
As usually defined, the IC50 is the midpoint of a concentration-inhibition curve. As for `CN(CC1CCNCC1)c1nn2c(-c3ccnc(C(F)(F)F)c3)cnc2c2c1N(C)CCO2` [US20240199630, Compound T4.1], inhibition was half-maximal at 0.9 nM (IC50). This counts as sub-nanomolar.

Consider `CNCC1CCN(c2nn3c(-c4ccnc(C(F)(F)F)c4)cnc3c3c2N(C)CCO3)CC1` [US20240199630, Compound T4.2], for which inhibition was half-maximal at 5.5 nM (IC50).

Turning to `CN1CCOc2c1c(N1CCC3(CCCNC3)CC1)nn1c(-c3ccnc(C(F)(F)F)c3)cnc21` [US20240199630, Compound T4.6], inhibition was half-maximal at 8.3 nM (IC50).

As for `CN1CCOc2c1c(N1CCCC3(CCNCC3)C1)nn1c(-c3ccnc(C(F)(F)F)c3)cnc21` [US20240199630, Compound T4.7], the IC50 stood at 1.1 nM.

Regarding `CN1CCOc2c1c(NC1CC3(CCNCC3)C1)nn1c(-c3ccnc(C(F)(F)F)c3)cnc21` [US20240199630, Compound T4.8], the IC50 amounted to 2 nM.

Turning to `CN1CCOc2c1c(N1CCC3(CC1)CC(N)C3)nn1c(-c3ccnc(C(F)(F)F)c3)cnc21` [US20240199630, Compound T4.9], the IC50 was determined as 0.8 nM.

For the origin of these results see BindingDB's records for patent US20240199630 (CNIO, 2024).
